US11484543B2, “Compositions and methods for diagnosing and treating diseases and disorders associated with mutant KCNJ5” (The Rockefeller University, priority 2017, dated 2022)
Read-outs that look alike come from different tables or passages of the source.

Biological target: T1, KCNJ5^G151R (Homo sapiens, UniProt P48544, G151R)
T1 construct: expressed in transfected cells
T1 sequence (P48544 1-419 G151R): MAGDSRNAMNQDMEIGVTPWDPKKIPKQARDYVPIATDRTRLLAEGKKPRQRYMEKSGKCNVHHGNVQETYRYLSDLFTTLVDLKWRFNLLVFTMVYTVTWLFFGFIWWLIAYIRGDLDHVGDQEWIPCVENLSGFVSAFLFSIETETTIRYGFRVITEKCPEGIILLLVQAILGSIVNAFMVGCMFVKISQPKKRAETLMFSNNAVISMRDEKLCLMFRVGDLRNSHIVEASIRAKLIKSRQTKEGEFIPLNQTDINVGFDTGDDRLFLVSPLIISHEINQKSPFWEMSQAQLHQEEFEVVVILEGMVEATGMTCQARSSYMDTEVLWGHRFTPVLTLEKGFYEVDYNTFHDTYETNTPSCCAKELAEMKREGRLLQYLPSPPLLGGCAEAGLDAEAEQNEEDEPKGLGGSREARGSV
Test: cell-based
Assay type: cell-based
Procedure, shortened: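 Viability is read as cellular ATP by CellTiter-Glo luminescence 72 h later at 37 °C. Uninduced and induced untreated cells set 100% and 0% effect; curves use a 4-parameter logistic fit.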

[1] = 10-point dilution 20 to 0.0391 μM, N=3, four-parameter fit

Row | Molecule | G151R maximum inhibition [1] | G151R minimum inhibition [1] | viability at 10 µM (HEK293, 72 h, mean of primary screen and hit pick, read-out: mean % effect) | viability at 10 µM (HEK293, ATP level 72 h after induction, uninduced = 100%, induced = 0% effect, first of the two runs (primary screen / hit pick), read-out: % effect (1)) | viability at 10 µM (HEK293, ATP level 72 h after induction, uninduced = 100%, induced = 0% effect, second of the two runs (primary screen / hit pick, confirmatory testing), read-out: % effect (2)) | rescue of ATP level (dose-response at 1.1, 3.3 and 10 μM) | inhibition of KCNJ5^MUT (structure-activity statement) (macrolide series, dilution curves) | inhibition of KCNJ5^G151R by synthesized macrolide derivatives (tested as in FIG. 7 (FIGS. 9 and 10))
1 | CC[C@H]1OC(=O)[C@H](C)[C@@H](O[C@H]2C[C@@](C)(OC)[C@@H](O)[C@H](C)O2)[C@H](C)[C@@H](O[C@@H]2O[C@H](C)C[C@H](N(C)C)[C@H]2O)[C@](C)(O)C[C@@H](C)/C(=N\OCOCCOC)[C@H](C)[C@@H](O)[C@]1(C)O [Roxithromycin, roxithromycin] | 105.92% | 9.92% | 107% | 108% | 107% | virtually complete rescue of ATP level | potent effects | 
2 | N-demethyl-N-isobutyl-8,9-anhydroerythromycin A 6,9-hemiacetal [PLUX37] |  |  |  |  |  |  |  | significant inhibition
